# Measured values published in patent publication US20250027072A1, “METHODS AND CO[…] TO ENGINEERED CANNABINOID RECEPTORS” (priority 2021, published 2025).
# Values joined by “and” are separate entries in the source; they are usually repeats but may differ in a detail not shown here. Equal values may be shown once. Read-outs that look alike come from different tables or passages of the source.
# Tests used:
# [1] = target: T1, human cannabinoid receptor type II (CB2R) (Homo sapiens, UniProt P34972); assay: cell-based; assay type: cell-based; conditions: Ste2 signal sequence CB2R; read-out: EC50, dose response with CB2R
# T1 sequence (P34972 whole entry): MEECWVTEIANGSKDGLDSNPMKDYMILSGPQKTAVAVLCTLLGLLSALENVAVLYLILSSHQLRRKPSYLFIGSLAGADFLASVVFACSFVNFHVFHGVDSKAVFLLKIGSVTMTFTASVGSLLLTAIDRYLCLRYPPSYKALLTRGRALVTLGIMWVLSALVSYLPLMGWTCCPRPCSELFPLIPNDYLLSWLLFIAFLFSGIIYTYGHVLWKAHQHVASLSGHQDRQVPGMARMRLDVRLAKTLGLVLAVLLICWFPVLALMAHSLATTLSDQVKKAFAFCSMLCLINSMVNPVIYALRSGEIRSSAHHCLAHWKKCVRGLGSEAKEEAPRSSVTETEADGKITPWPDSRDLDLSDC
# Procedure: (§1) To efficiently transduce signals from the human machinery to the yeast pathway, the yeast 5 C-terminal residues of the G-alpha gene GPA1 were replaced with the sequence of the Gαi3 human G-alpha variant as previously described (Brown et al. 2000). ZsGreen1 was used to report on the activity of the pathway, integrating it into the genome in place of the pheromone-inducible Fig1 gene (FIG. 14A).
# (§2) Yeast colonies were picked and grown overnight to saturation in pH 5.8 SD-His media in a 2.2 mL deep well plate (Axygen) grown in a plate-shaking incubator (30° C., 1000 rpm, 3 mm orbital). In the morning cultures were diluted 1:10 or 1:25 in SD-His media buffered to pH 7.1 with 100 mM MOPSO (unless otherwise specified). Ligands were added to the culture and incubated with shaking for 8 hours. Cells were then washed three times with ice-cold Tris buffer (pH 7) and diluted 1:20 for cytometry. All cytometry was performed on a Sony SA3800 spectral analyzer. Each sample was tested for 10,000 events, and read at a rate of 1,000 events per second. All assays as reported here were filtered only for singlet populations.
# [2] = target: T1, human cannabinoid receptor type II (CB2R); assay: cell-based; assay type: cell-based; parameters: other: MF alpha leader CB2R; "MF-α=mating factor alpha pre-pro"; fused on or other part: yeast mating factor alpha (MFα) pre-pro leader fused at the N-terminus; conditions: EC50, dose response with CB2R, MF alpha leader CB2R
# Procedure: as §1, §2
# [3] = target: T1, human cannabinoid receptor type II (CB2R); assay: cell-based; assay type: cell-based; parameters: other: syn-prepro CB2R; "Syn=synthetic pre-pro"; fused on or other part: synthetic yeast pre-pro secretion leader (syn-prepro) fused at the N-terminus; conditions: EC50, dose response with CB2R, syn-prepro CB2R
# Procedure: as §1, §2
# [4] = target: T1, human cannabinoid receptor type II (CB2R); assay: cell-based; assay type: cell-based; parameters: MFα (mating factor alpha) pre-pro leader (N); expressed in transfected cells; host or cells: Saccharomyces cerevisiae BY4741-derived biosensor strain (Gpa1-Gαi3 chimera, ZsGreen reporter); sterol-modified strain ST03 for the screens, pH 5.8; conditions: EC50, dose response with CB2R, WT CB2R (no leader)
# Procedure: as §1, §2
# [5] = target: T2, CB1R (Homo sapiens, UniProt P21554); conditions: Banister et al., 2015; read-out: EC50 with CB1R in mouse AtT-20 neuroblastoma cells; cited from earlier work
# T2 construct: host or cells: mouse AtT-20 cells
# T2 sequence (P21554 whole entry): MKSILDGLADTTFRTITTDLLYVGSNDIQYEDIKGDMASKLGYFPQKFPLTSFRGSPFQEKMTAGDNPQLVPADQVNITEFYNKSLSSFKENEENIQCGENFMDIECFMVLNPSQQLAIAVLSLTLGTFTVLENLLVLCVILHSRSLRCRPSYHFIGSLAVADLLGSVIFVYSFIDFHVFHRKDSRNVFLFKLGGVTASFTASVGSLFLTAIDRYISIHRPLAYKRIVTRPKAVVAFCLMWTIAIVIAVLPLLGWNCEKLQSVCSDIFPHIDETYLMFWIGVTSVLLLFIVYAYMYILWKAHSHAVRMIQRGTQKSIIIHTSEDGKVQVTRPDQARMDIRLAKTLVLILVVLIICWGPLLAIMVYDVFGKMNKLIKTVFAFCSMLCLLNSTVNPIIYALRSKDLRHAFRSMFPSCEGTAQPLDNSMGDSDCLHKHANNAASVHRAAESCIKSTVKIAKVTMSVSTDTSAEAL
# [6] = target: T1, human cannabinoid receptor type II (CB2R); assay: cell-based; assay type: cell-based; parameters: Normalized Activity at 1 μM, CB2R; other: PINACA compounds, 1 μM; Normalized Activity at 1 μm, CB2R; other: 5-fluoro PB-22 isomers, 1 μm; other: MFα-CB2R, ST03 sterol strain, pH 5.8; activity against CB2R; other: at 10 nM, dose response; preference at CB2R of ADB-BINACA over AB-PINACA; signaling at CB2R in synthetic cannabinoid screen; fused on or other part: yeast mating factor alpha (MFα) pre-pro leader fused at the N-terminus as a trafficking signal
# Procedure: as §1, §2
# [7] = target: T3, human Cannabinoid Receptor 1 (CB1R) (Homo sapiens, UniProt P21554); assay type: cell-based
# T3 construct: syn-prepro (synthetic yeast pre-pro secretion leader) (N); expressed in transfected cells; host or cells: Saccharomyces cerevisiae BY4741-derived strain (ste2, sst2, far1 knocked out); Gpa1-Gαi3 chimera
# T3 sequence (P21554 90-472): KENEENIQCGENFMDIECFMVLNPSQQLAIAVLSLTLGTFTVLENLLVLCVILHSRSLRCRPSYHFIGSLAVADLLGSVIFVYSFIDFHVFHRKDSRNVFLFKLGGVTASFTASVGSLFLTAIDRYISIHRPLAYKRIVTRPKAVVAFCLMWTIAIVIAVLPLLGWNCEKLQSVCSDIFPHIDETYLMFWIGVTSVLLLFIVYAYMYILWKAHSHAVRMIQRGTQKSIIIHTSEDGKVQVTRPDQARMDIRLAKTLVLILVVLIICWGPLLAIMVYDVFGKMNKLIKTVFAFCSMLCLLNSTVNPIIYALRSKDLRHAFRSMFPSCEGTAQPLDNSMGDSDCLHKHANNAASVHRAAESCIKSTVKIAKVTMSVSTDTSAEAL
Structure (SMILES),EC50 [1],EC50 [2],EC50 [3],EC50 [4],EC50 [5],"EC50 ([6]; MFα-CB2R, ST03 sterol strain, pH 5.8, read-out: EC50 at CB2R, dose response)",signaling at CB2R in synthetic cannabinoid screen ([6]; compounds at 1 μM),"relative fluorescence of the ACEA positive control at CB1R ([7]; compounds at 10 nM, 100 μM ACEA control)",signaling at CB1R in synthetic cannabinoid screen relative to 100 μM ACEA positive control ([7]; compounds at 1 μM),"EC50 at CB1R, synthetic cannabinoid dose response ([7]; syn-prepro-Δ89-CB1R, wild type ergosterol strain)","EC50 ([7]; syn-prepro-Δ89-CB1R, wild type ergosterol strain, read-out: EC50 at CB1R, synthetic cannabinoid dose response)"
"CCCCC/C=C\C/C=C\C/C=C\C/C=C\CCCC(=O)OC(CO)CO [2-AG, 2-arachidonoyl glycerol]",0.15 µM,0.16 µM,1.54 µM,0.07 µM,–,–,–,–,–,–,–
CCCCCn1nc(C(=O)N[C@H](C(N)=O)C(C)C)c2ccccc21 [AB-PINACA],–,–,–,–,0.0012 µM,0.107 µM,high activity,strong signaling,maximal fluorescence,low nanomolar range,0.0012 µM and 0.00121 µM
